According to patent US20220218715A1, “NOVEL USE OF PYRROLO-PYRIDINE DERIVATIVE COMPOUND FOR PREVENTION AND/OR TREATMENT OF CANCER” (VORONOI CO., LTD., priority 2019, published 2022):

How the values were obtained:
PC-9 cell line = assay: Lung cancer cell colony formation inhibition; format: cell-based, human; conditions: concomitant treatment with Gefitinib or Osimertinib, vs single treatment or Harmine, from 10 days, FIG. 1
Description: Specifically, the PC-9 cell line was purchased from the ECACC (European Collection of Authenticated Cell Cultures), and RPMI-1640 with 10% FBS and 1% penicillin streptomycin was used. PC-9GR cells cultured with slow and sustained exposure to Gefitinib (manufactured by Selleckchem) were serially cultured with 1 μmol/L Gefitinib.
The remaining colony-forming cells were fixed with methanol (1%) and formaldehyde (1%), then dyed with 0.5% crystal violet before photographing each well.

MC38 colon cancer = assay: Anticancer effect in MC38 colon cancer transplant mouse model; format: in vivo, female C57BL/6 mouse
Method: The 3LL cells were cultured in Hams F10:L15=3:7 culture medium, the EMT-6 cells were cultured in Waymouth's MB 752/1 culture medium, and the MC38 cells were cultured in a DMEM culture medium with 10% FBS and 1% penicillin streptomycin, at 37° C. in a 5% CO2 humidified cell culture incubator.
The mouse PD-1 antibody (BE-0146), PD-L1 antibody (BE-0101), and CTLA-4 antibody (BE-0131) were purchased from BioXcell.
All animal tests were carried out through WuXi AppTec.

[1] = test system: Ba/F3 EGFR L858R/T790M/C797S; assay: EGFR expression after treatment, western blot; format: cell-based; conditions: 0.5, 1.2 and 5 μM, 4 or 24 hours, FIG. 7
Method: (§1) For the Ba/F3 EGFR L858R/T790M/C797S cell line, Ba/F3 naive cells purchased from DSMZ were transfected with EGFR L858R/T790M/C797S […] DNA using lipofectamine, and a cell line selected using 1 μg/ml puromycin for 2 weeks was used. Here, the culture medium used was RPMI-1640 with 10% FBS and 1% penicillin streptomycin. The NCI-H2228 and CAL-27 cell lines were purchased from ATCC, and for culturing RPMI-1640 with 10% FBS and 1% penicillin streptomycin was used for NCI-H2228, while for CAL-27 DMEM with 10% FBS and 1% penicillin streptomycin was used.
(§2) As needed, culturing was performed for 1 hour with Cyclohexamine at 30 μg/mL concentration, followed by 15 minutes EGF treatment at a concentration of 100 ng/mL. For the phosphoarray experiment, DYRK1a siRNA was reacted with HEK293T cells for 48 hours at 30 nM concentration, confirming inhibition of DYRK1a expression in the cells. These were used as the control for the main experiment.

NCI-H2228 = assay: EGFR expression and signalling after treatment, western blot; format: cell-based; conditions: FIG. 7
Method: as §1, §2

CAL-27 = assay: EGFR expression after treatment, western blot or phosphoarray; format: cell-based; conditions: FIG. 7
Method: as §1, §2

[2] = test system: NCI-H1975 lung cancer cells; assay: Anticancer effect in mouse model with NCI-H1975 lung cancer cells; format: in vivo, Balb/c Nude Mice
Method: The NCI-H1975 cell line was purchased from the Institute of Biochemistry and Cell Biology (Shanghai Institutes for Biological Sciences, CAS). Cells were kept in RPMI-1640 containing 10% FBS, and cultured in a 37° C. humidified cell culture incubator at 5% CO2. All animal experiments were carried out according to the Animal Use and Management Guidelines of Shanghai Medicilon Inc. […] Tumor size and animal body weight were measured twice weekly, and clinical symptoms were recorded daily. The mice will be administered individually according to most recent body weight. The tumors were measured using calipers using two measurements, length (a) and width (b). The volume of the tumors was calculated individually as follows, from the two measured diameters of the tumors: tumor volume (mm^3)=(a×b^2)/2.

ALK(C1156Y) = target: T1, ALK(C1156Y) (Homo sapiens, UniProt Q9UM73, C1156Y); assay: scanMAX Kinase analysis panel (DiscoverX); format: binding; conditions: 1 μM in DMSO
T1 construct: purchased DiscoverX
T1 sequence (Q9UM73 19-1620 C1156Y): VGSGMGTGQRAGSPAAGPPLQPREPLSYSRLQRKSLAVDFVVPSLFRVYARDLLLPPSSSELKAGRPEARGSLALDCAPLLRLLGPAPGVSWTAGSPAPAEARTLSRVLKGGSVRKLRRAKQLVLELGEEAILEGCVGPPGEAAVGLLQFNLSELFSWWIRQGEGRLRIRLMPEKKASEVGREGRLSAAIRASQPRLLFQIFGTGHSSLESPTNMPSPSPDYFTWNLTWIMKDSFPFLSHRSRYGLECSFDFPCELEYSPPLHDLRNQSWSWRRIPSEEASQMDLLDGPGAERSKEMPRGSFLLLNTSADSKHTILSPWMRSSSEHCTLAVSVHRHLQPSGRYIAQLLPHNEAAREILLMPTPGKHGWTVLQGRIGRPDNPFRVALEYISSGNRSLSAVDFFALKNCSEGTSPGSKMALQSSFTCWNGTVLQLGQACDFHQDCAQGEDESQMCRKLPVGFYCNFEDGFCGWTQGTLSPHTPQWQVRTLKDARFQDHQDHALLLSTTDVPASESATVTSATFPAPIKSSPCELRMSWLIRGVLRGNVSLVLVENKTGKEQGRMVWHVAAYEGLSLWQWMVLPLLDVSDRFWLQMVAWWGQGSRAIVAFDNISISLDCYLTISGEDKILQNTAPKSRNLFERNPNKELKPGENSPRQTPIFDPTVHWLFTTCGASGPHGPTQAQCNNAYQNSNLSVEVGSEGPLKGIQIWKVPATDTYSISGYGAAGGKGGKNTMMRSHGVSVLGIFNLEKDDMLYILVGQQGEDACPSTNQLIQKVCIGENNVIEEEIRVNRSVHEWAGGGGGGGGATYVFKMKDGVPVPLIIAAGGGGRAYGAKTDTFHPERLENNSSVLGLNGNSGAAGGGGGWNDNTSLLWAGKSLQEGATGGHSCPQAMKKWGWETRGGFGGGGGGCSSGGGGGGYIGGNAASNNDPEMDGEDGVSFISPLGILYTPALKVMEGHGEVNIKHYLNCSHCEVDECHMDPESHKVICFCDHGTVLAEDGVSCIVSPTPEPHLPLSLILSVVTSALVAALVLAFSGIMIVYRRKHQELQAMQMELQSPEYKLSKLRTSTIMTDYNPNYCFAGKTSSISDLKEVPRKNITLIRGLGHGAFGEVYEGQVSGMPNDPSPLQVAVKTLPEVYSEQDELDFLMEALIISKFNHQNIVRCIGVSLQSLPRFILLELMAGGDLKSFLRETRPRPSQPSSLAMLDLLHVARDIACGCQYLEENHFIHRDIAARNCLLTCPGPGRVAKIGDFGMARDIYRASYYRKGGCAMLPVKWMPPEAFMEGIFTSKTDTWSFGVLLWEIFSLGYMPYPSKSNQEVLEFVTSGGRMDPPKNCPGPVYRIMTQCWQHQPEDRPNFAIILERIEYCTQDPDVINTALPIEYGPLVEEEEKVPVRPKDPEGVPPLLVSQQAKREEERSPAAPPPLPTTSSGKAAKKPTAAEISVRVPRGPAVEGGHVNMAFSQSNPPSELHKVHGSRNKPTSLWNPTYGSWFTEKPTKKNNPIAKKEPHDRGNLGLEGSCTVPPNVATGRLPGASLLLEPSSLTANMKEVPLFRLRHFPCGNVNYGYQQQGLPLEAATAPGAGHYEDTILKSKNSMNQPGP
Description: (§3) [(Example Compound−Positive Control)/(Negative Control−Positive Control)×100]

LRRK2 (G2019S) = target: T2, LRRK2 (G2019S) (Homo sapiens, UniProt Q5S007, G2019S); assay: scanMAX Kinase analysis panel (DiscoverX); format: binding; conditions: 1 μM in DMSO
T2 construct: purchased DiscoverX
Description: as §3

CAMK2D = target: T3, CAMK2D (Homo sapiens, UniProt Q13557); assay: scanMAX Kinase analysis panel (DiscoverX); format: binding; conditions: 1 μM in DMSO
T3 construct: purchased DiscoverX
Description: as §3

INSR = target: T4, INSR (Homo sapiens, UniProt P06213); assay: scanMAX Kinase analysis panel (DiscoverX); format: binding; conditions: 1 μM in DMSO
T4 construct: purchased DiscoverX scanMAX Kinase analysis panel
T4 sequence (P06213 28-1382): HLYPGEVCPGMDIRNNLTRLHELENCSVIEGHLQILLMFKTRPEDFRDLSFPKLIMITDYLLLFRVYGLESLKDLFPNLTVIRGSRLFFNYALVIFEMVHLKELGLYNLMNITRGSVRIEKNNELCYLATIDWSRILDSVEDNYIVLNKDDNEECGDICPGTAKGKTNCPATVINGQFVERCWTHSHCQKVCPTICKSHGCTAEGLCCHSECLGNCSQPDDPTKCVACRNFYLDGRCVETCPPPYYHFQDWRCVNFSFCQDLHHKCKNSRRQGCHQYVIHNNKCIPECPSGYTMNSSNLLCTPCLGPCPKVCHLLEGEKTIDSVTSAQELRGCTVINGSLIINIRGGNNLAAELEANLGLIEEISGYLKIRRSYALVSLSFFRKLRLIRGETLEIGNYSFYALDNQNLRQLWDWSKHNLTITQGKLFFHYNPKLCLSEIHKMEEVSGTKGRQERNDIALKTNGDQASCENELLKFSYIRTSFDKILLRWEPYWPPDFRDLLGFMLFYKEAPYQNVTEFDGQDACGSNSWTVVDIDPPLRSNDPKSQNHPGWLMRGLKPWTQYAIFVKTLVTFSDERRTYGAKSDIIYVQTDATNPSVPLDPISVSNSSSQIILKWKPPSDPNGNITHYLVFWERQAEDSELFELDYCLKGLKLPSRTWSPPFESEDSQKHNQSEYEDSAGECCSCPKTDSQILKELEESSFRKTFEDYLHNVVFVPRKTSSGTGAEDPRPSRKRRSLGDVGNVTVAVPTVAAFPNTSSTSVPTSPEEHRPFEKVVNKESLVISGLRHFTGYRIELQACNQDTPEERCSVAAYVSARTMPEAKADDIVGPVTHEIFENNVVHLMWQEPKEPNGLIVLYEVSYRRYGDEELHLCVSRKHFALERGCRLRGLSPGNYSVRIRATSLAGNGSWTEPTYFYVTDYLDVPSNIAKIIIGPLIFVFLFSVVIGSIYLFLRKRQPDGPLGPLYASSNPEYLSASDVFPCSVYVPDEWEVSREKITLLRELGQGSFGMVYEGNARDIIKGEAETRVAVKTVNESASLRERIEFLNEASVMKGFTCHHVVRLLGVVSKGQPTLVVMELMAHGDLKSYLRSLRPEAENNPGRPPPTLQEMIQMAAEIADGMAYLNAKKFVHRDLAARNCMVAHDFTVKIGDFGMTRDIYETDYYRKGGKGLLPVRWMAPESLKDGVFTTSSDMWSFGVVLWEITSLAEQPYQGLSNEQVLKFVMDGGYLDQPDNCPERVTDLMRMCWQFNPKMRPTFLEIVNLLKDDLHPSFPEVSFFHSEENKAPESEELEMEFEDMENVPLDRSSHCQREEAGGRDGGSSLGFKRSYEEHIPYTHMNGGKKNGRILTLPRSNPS
Description: as §3

[3] = target: T5, JAK1 (JH2domain-psudokinase) (Homo sapiens, UniProt P23458); assay: scanMAX Kinase analysis panel (DiscoverX); format: binding; conditions: 1 μM in DMSO
T5 construct: JAK1 (JH2domain-pseudokinase); purchased DiscoverX scanMAX Kinase analysis panel
T5 sequence (P23458 583-855 limits assumed): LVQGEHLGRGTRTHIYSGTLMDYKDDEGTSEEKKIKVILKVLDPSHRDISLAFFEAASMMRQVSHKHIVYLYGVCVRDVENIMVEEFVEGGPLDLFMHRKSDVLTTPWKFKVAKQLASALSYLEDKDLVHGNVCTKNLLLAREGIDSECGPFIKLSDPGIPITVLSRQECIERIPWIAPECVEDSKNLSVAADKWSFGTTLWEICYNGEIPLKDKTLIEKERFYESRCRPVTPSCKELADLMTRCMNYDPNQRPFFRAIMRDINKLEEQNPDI
Description: as §3

GAK = target: T6, GAK (Homo sapiens, UniProt O14976); assay: scanMAX Kinase analysis panel (DiscoverX); format: binding; conditions: 1 μM in DMSO
T6 construct: purchased DiscoverX
Description: as §3

MYLK = target: T7, MYLK (Homo sapiens, UniProt Q15746); assay: scanMAX Kinase analysis panel (DiscoverX); format: binding; conditions: 1 μM in DMSO
T7 construct: purchased DiscoverX
Description: as §3

CHEK2 = target: T8, CHEK2 (Homo sapiens, UniProt O96017); assay: scanMAX Kinase analysis panel (DiscoverX); format: binding; conditions: 1 μM in DMSO
T8 construct: purchased DiscoverX
T8 sequence (O96017 whole entry): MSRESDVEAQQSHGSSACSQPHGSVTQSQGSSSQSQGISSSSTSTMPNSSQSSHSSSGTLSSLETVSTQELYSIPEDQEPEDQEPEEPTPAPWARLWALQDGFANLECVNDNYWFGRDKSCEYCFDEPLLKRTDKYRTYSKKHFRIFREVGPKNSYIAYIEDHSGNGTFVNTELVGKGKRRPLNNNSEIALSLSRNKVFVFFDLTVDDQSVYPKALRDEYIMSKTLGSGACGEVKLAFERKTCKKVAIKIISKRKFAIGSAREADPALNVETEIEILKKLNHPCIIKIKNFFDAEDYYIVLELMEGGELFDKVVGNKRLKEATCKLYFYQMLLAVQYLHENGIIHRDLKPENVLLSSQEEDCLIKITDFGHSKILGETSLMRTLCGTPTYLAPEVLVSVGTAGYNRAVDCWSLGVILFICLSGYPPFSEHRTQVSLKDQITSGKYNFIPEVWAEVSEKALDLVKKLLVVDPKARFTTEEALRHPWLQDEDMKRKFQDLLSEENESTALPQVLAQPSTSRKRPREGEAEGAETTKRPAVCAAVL
Description: as §3

ALK = target: T9, ALK (Homo sapiens, UniProt Q9UM73); assay: scanMAX Kinase analysis panel (DiscoverX); format: binding; conditions: 1 μM in DMSO
T9 construct: purchased DiscoverX
T9 sequence (Q9UM73 19-1620): as the sequence (Q9UM73 19-1620 C1156Y) above, with Y1138C counted along it
Description: as §3

LRRK2 = target: T10, LRRK2 (Homo sapiens, UniProt Q5S007); assay: scanMAX Kinase analysis panel (DiscoverX); format: binding; conditions: 1 μM in DMSO
T10 construct: purchased DiscoverX scanMAX Kinase analysis panel
Description: as §3

JNK3 = target: T11, JNK3 (Homo sapiens, UniProt P53779); assay: scanMAX Kinase analysis panel (DiscoverX); format: binding; conditions: 1 μM in DMSO
T11 construct: purchased DiscoverX scanMAX Kinase analysis panel
T11 sequence (P53779 whole entry): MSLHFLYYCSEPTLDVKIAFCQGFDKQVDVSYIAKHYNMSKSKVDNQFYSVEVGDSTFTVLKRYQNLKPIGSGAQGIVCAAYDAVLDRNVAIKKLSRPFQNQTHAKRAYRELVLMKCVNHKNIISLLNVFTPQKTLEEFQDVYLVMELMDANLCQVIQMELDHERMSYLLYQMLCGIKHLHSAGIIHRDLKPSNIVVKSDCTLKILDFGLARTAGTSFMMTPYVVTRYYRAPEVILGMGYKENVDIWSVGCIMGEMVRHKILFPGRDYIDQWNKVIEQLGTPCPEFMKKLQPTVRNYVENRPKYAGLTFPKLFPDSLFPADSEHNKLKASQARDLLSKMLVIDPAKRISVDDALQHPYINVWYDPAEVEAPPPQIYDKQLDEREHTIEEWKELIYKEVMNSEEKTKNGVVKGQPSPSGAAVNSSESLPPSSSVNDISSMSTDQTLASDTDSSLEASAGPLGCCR
Description: as §3

cSNK1D = target: T12, cSNK1D (Homo sapiens, UniProt P48730); assay: scanMAX Kinase analysis panel (DiscoverX); format: binding
T12 construct: purchased DiscoverX
T12 sequence (P48730 whole entry): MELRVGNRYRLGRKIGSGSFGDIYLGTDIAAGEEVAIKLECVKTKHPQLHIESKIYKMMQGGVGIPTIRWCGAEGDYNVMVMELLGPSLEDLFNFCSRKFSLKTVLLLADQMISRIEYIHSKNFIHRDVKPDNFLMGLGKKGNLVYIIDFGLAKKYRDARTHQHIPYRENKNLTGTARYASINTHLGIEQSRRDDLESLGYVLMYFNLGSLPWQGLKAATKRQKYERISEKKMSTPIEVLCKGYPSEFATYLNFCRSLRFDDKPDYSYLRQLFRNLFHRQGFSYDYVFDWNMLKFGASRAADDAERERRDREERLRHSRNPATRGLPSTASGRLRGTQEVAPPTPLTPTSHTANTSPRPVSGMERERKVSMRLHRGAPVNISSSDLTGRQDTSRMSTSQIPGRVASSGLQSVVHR
Description: as §3

inhibition at 1 µM (ALK(C1156Y)): ≥ 59%
inhibition at 1 µM (LRRK2 (G2019S)): ≥ 59%
inhibition at 1 µM (CAMK2D): 40 to 59%
inhibition at 1 µM (INSR): 40 to 59%
inhibition at 1 µM [3]: 40 to 59%
inhibition at 1 µM (GAK): ≥ 59%
inhibition at 1 µM (MYLK): ≥ 59%
inhibition at 1 µM (CHEK2): 40 to 59%
inhibition at 1 µM (ALK): ≥ 59%
inhibition at 1 µM (LRRK2): 40 to 59%
inhibition at 1 µM (JNK3): 40 to 59%
inhibition at 1 µM (cSNK1D): ≥ 59%
SMILES: CCNc1cc(Nc2ccc(C(=O)N3CCC(N4CCOCC4)CC3)cc2OC)nc2[nH]cc(C(F)(F)F)c12 [Compound 1, (4-((4-(ethylamino)-3-(trifluoromethyl)-1H-pyrrolo[2,3-b]pyridine-6-yl)amino)-3-methoxyphenyl) (4-morpholinopiperidine-1-yl)methanone]
colony formation inhibition (PC-9 cell line): substantially inhibit formation of lung cancer cell colonies
tumor suppression effect (MC38 colon cancer; concomitant with PD-1, PD-L1 and CTLA-4 antibodies 10 mg/kg IP BIW, FIG. 6c): improved concomitant effect
tumor suppression effect (MC38 colon cancer; singular treatment, 45, 60, 75 mg/kg po BID, FIG. 6a): insignificant tumor suppression effect
EGFR expression [1]: reduced EGFR expression
EGFR expression (NCI-H2228; 0.5, 1.2 and 5 μM, 4 or 24 hours): reduced EGFR expression
p-AKT (S473) (NCI-H2228): reduction
p-Erk 1/2 (T202/Y204) (NCI-H2228): reduction
EGFR expression (CAL-27): reduced EGFR expression
p-EGFR (Y-1086) expression (CAL-27; phosphoarray, 2 μM, 48 hours): Reduction in expression
anticancer effect ([2]; Compound 1 40 or 60 mg/kg concomitant with Osimertinib 3.5 mg/kg, PO QD, vs Osimertinib alone, FIG. 5): substantially reduced lung cancer (NCI-H1975) cells
anticancer effect ([2]; singular treatment with Compound 1, 60 mg/kg PO QD): no anticancer effect
